The values below come from patent US8815935B2, “Inhibitors of protein prenyltransferases” (The Regents of the University of California, priority 2008, dated 2014).

The structures appear in SMILES notation.

The test system of experiment [1] is geranylgeranylated Rheb (Rheb-CSVL) in HEK 293 cells. Kind of experiment: Rheb-CSVL mobility shift in HEK 293 cells. It is filed as cell-based, human. The following applies: 48 hours. The text has this:
Finally, we investigated in vivo effects of compounds 22 (also known as UC-22) and 23 (also known as UC-23). Human embryonic kidney (HEK) 293 cells were transfected with the Rheb-CSVL construct that expresses the geranylgeranylated form of the Rheb protein. Inhibition of the geranylgeranylation of this protein can be detected from a shift in its mobility on SDS polyacrylamide gel; the unprocessed form appears as a slowly migrating band.
Human embryonic kidney (HEK) 293 cells expressing Myc-HA tagged-Rheb-CVSL (upper) or Myc-HA tagged-Rheb-WT (lower) were treated with P3-E5 for 48 hours and then lysed. The cell lysates were run on a SDS polyacrylamide gel and immunoblotted using anti-Myc or anti-Actin antibody. The descriptors P and U indicate processed and unprocessed Rheb, respectively.
Human embryonic kidney (HEK) 293 cells expressing Myc-HA tagged-Rheb-CVSL (upper) or Myc-HA tagged-Rheb-WT (lower) were treated with mP5-H6a (also referred to as mP5-H6), or GGTI-298 for 48 hours and then lysed. Lysates were run on a SDS polyacrylamide gel and immunoblotted with anti-Myc or anti-Actin antibody.

In another experiment the test system is MDA-MB-231. The experiment is described as follows: MDA-MB-231 cell growth inhibition. It is filed as cell-based, human. The following applies: Homo sapiens, MDA-MB-231, 72 h; 3 days, CCK-8, vs DMSO; read-out: IC50, MDA-MB-231 (Breast). On the procedure: (§1) In FIG. 9-24 in vitro IC50 values for the GGTase I activity are reported. In Tables 7-15 in cell GI50 values for the growth inhibition of a variety of cancer cell lines (e.g., Jurkat, K562, MDA-MB-231, BT474, MCF7, MiaPaCa2, Aspc-1, Panc-1, Capan-2, CFpac-1, and MCF10a) are reported.
(§2) Cell viability was determined by Cell Counting Kit-8 (CCK-8, Dojindo, Kumamoto, Japan) as described previously (31). Cell viability was calculated relative to the DMSO control. Cell cycle profile was analyzed by flow cytometry as described previously (32).

Experiment [2] concerns MiaPaCa2. The experiment is described as follows: MiaPaCa2 cell growth inhibition. It is filed as cell-based, human. The following applies: Homo sapiens, MIA PaCa-2, 72 h; 3 days, CCK-8, vs DMSO; read-out: IC50, MiaPaCa2 (Pancreas). As to the method: as §1, §2
The next experiment deals with Jurkat cells. The experiment is described as follows: Jurkat cell growth inhibition. It is filed as cell-based, human. The following applies: Homo sapiens, Jurkat, 72 h; 3 days, CCK-8, vs DMSO; read-out: IC50, Jurkat (Blood). The method in brief:
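Jurkat T-cell leukemia cells were exposed to compound for 72 h, with cell number counted and viability read by CCK-8 relative to the DMSO control. GI50 is the compound concentration giving 50% growth inhibition.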

Experiment [3] concerns MiaPaCa2. The experiment is described as follows: Cell cycle distribution by flow cytometry, MiaPaCa2. It is filed as cell-based, human. The following applies: 10 μM, 48 hours. As to the method: as §2
(In flow cytometry, cells or beads pass a laser one at a time.)

Another experiment concerns PANC-1 xenograft tumor. The experiment is described as follows: PANC-1 xenograft tumor growth in SCID mice. It is filed as in vivo. The following applies: 1.16 mg/kg i.p., six times per week. On the procedure: Xenograft tumor experiments have shown that GGTI's can inhibit PANC-1 tumor growth in mice. Seven SCID mice (six weeks old) received a subcutaneous implantation of 5 million PANC-1 cells. The mice were supplied with food and water for 14 days before treatment was started. The treatment group received 160 uM GGTI (p61A6) in 0.25 ml 0.9% NaCl while the control group received 0.25 ml 0.9% NaCl. Each dosage was injected 3 times per week. These dosage were designed to administer p61A6 at approximately 1.16 mg/kg of body weight. Also, since the mouse has about 2 ml blood, the final concentration of p61A6 in vivo was approximately 20 uM. The final DMSO concentration in the control group was approximately 0.8%.
Additional xenograft tumor experiments have shown that GGTI's can inhibit PANC-1 tumor growth in mice and reduce the size of the tumor. Six SCID mice (six weeks old) received a subcutaneous implantation of 3 million PANC-1 cells. The mice were supplied with food and water for 14 days before treatment began. […] Every two weeks each mouse's body weight and tumor volume was measured.

In a further experiment the test system is MCF-7 cells. The experiment is described as follows: Cell cycle profile by flow cytometry, MCF-7. The class given is cell-based, human. The following applies: 48 hours, FIG. 37B. On the procedure: MCF-7 cells were treated with P61-A6, P61-B6 or DMSO for 72 hours. Cell viability relative to the DMSO control (100% value) is plotted. (B) MCF-7 cells were treated with indicated concentrations (μM) of P61-A6, P61-B6 or DMSO for 48 hours. Cell cycle profiles were monitored by flow cytometry. Percentages of cells in each phase of the cell cycle are indicated by different shades. (C) NIH3T3 cells were transfected with p21^CIP1/WAF1-luciferase or empty vector. Cells were treated with P61-A6 or P61-B6 compound at indicated concentrations or with DMSO for 48 hours and luciferase assay was performed. Data represent the mean+/−S.D. of two measurements from two independent experiments. *, P<0.05; **, P<0.005 compared with the value for DMSO.
as §2

In experiment [4] the test system is Rab5b geranylgeranylation in NIH3T3 cells. Kind of experiment: Rab5b immunoblot and subcellular fractionation in NIH3T3 cells. The following applies: 48 hours. It is filed as cell-based. On the procedure:
The inhibition of Rab geranylgeranylation in cells (FIG. 43) was examined according to (29). Briefly, whole cell lysates were subjected to 15% SDS-PAGE containing 4M urea followed by immunoblotting with the antibody against Rab5b (Santa Cruz: sc-598) or actin. Subcellular fractionations (FIG. 44) were performed as described by Gomes et al. (30). Briefly, cells were treated with P49-F6 for 48 hours. After osmotic lysis, cell debris were removed by centrifugation at 500×g for 10 min, and the supernatant was subjected to ultracentrifugation at 100,000×g for 60 min. The supernatant of ultracentrifugation was collected as a soluble fraction. The pellet was collected as a membrane fraction. These fractions were subjected to electrophoresis on 10% SDS-PAGE gels followed by immunoblotting with the antibody against Rab5b. RhoGDI (Santa Cruz: sc-360) and Na^+/K^+ ATPase (Sigma: A276) were used as markers for soluble and membrane fractions, respectively.
A general note: In western blotting, separated proteins are transferred to a membrane and probed.

In general, IC50 refers to the point on the concentration scale where inhibition reaches its midpoint.

On to `Cc1ccccc1S(=O)(=O)N1[C@@H](c2cccc(Cl)c2)C(C(=O)O)=CC[C@H]1c1ccc(Cl)cc1` [P3-E5], for which, in experiment [1], the “inhibition of geranylgeranylation of Rheb-CSVL (slowly migrating unprocessed band)” value is reported as “inhibits geranylgeranylation in cells”.
As to `Cc1ccccc1S(=O)(=O)N1C(c2ccc(Cl)cc2)C(C(=O)NC(Cc2ccccc2)C(N)=O)=CC1C(C)(C)C` (stereo not drawn) [P61-A6], the figures for the IC50 with MDA-MB-231, in the experiment with MiaPaCa2 [2] and in the experiment with Jurkat cells were 8.7 µM, 4.7 µM and 2.9 µM, respectively. For the same compound, the “Percent G2/M, MiaPaCa2” value in the experiment on MiaPaCa2 [3] (DMSO 14.12) is listed as 10.81%. In addition, in the experiment on MiaPaCa2 [3] (DMSO 77.85), the “Percent G0/G1, MiaPaCa2” value came out at 87.98%. Moreover, in the experiment with PANC-1 xenograft tumor, the “PANC-1 xenograft tumor growth” value was “almost complete inhibition”. The “cell cycle effect in MCF-7” value in the experiment on MCF-7 cells is “dose-dependent enrichment of G1 phase cells”. Besides, the “inhibition of Rab5b geranylgeranylation (slow migrating unmodified Rab5b band)” value in experiment [4] is recorded as “did not inhibit geranylgeranylation of Rab5b”.
